Measurements reported in patent publication US20230027361A1, “METTL3 MODULATORS” (priority 2019, published 2023).
Where two headings read alike, the source gives them in different places.

Assays:
MOLM-13 cells [1] = test: MOLM-13 96 Hour Cell Proliferation Assay; format: cell-based; conditions: Homo sapiens, MOLM-13, 96 h
Procedure, shortened: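 MOLM-13 cells in RPMI 1640 with 10% FBS were plated overnight at 37 °C, then exposed to compound dilutions at 0.25% DMSO final for 96 h. Viability was read by CellTiter-Glo luminescence, normalised to staurosporine (100% death) and DMSO (0% death) controls, and IC50 was fitted by 4-parameter logistic regression.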

PRMT5-MEP50 = PRMT5-MEP50 (Homo sapiens, UniProt O14744); test: PRMT5 Assay (PRMT5 biochemical assay)
Procedure, shortened: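 Radiometric methyltransferase read-out: after 60 min reaction, excess unlabelled SAM (15 μM) stops turnover and biotinylated H4 peptide (100 nM) carrying 3H-methyl from 250 nM 3H-SAM is captured on streptavidin flashplates (2 h, 25° C) for scintillation counting. Enzyme, 2.5 nM PRMT5-MEP50, was preincubated 5 min with compound in pH 8.0 Tris buffer with DTT and Tween.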

METTL1/WDR4 = METTL1/WDR4 (Homo sapiens, UniProt Q9UBP6); test: METTL1 Assay (METTL1 biochemical assay)
Procedure, shortened: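 Radiometric methyltransfer by METTL1/WDR4 (6.25 nM f.c., 5 min preincubation) at ambient temperature in HEPES pH 7.5, KCl, MgCl2, DTT; started with 25 nM 3′-biotinylated RNA and 60 nM 3H-SAM, run 20 min, quenched with 15 μM cold SAM. Product captured on streptavidin flashplates (2 h, 25° C), counted by scintillation.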

MOLM-13 cells [2] = test: MOLM-13 48 Hour Cell Proliferation Assay; format: cell-based; conditions: Homo sapiens
Procedure: MOLM-13 (DSMZ) cells were seeded at 1000 cells per well in a volume of 44 μL in a Falcon 384-well tissue culture treated clear bottom microplate in RPMI 1640 media containing 10% fetal bovine serum using a Multidrop Combi (ThermoFisher Scientific). Cells were incubated overnight at 37° C. in a humidified tissue culture incubator. The Mosquito® HTS Liquid Handler was used to make a compound/media intermediate plate by aliquoting 1 μL of compound from the initial compound dilution plate (concentrations ranging from 10.0 mM to 38.0 nM in 100% DMSO) into a V bottom 384-well screen matrix plate containing 49 μL of media containing the appropriate serum (50-fold dilution, 2% DMSO). The Apricot liquid handling system was used to transfer 6.2 μL compounds from the intermediate plate into the Falcon 384-well tissue culture plate containing 44 μL cells (10-point, 4-fold dilution spanning concentrations 25.0 μM to […], 0.25% DMSO final), and placed in a humidified tissue culture incubator at 37° C. After 48 hours, 25 μL of Cell Titer-Glo reagent (Promega) was added to each well using a Multidrop Combi. The plate was protected from light and placed on an IKA plate shaker for at 300 rpm for 10 minutes at room temperature. The plate was read on an EnVision plate reader (Perkin Elmer) using the Ultra Sensitive Luminescence protocol. Data analysis was performed by normalizing the raw luminescence units to an average of the positive control values for staurosporine (100% cell death) and the negative control values for DMSO (0% cell death). An IC50 was calculated using a 4-parameter logistic nonlinear regression model in GraphPad Prism.

[3] = test system: m6A in cellular mRNA of MOLM-13 cells; test: m6A-mRNA LC-MS/MS Assay (m6A cellular assay); format: cell-based; conditions: Homo sapiens, MOLM-13, read-out: m^6A IC50
Procedure: Cells were harvested by centrifugation followed by mRNA extraction using DIRECT Dynabeads mRNA DIRECT kit (Life Technologies). mRNA was quantified on NanoDrop spectrophotometer (Thermo Fisher Scientific) and digested into single nucleosides using Nucleoside Digestion Mix (New England Biolabs). […] Quantification is performed in comparison with the standard curve, obtained from pure nucleoside standards (Selleck Chemicals) running with the same batch of samples. Percentage m^6A in cellular mRNA is calculated as 100*(m^6A/A).

METTL3/METTL14 = METTL3/METTL14 (Homo sapiens, UniProt Q86U44); test: METTL3-14 Standard Enzyme Assay (METTL3 biochemical assay)
Procedure, shortened: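 Tritium transfer from ³H-SAM (100 nM) to biotinylated RNA (100 nM) captured on streptavidin flashplates and counted by scintillation. Enzyme complex (2.5 nM) with compound, 5 min preincubation, 30 min reaction at ambient temperature, HEPES pH 7.5 buffer, stopped by excess unlabeled SAM.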

[4] = PRMT5 biochemical assay; read-out: PRMT5 IC50
[5] = METTL3 biochemical assay; read-out: METTL3 IC50
[6] = read-out: METTL1 IC50, METTL1 biochemical assay

PRMT5-MEP50, sequence (O14744 whole entry): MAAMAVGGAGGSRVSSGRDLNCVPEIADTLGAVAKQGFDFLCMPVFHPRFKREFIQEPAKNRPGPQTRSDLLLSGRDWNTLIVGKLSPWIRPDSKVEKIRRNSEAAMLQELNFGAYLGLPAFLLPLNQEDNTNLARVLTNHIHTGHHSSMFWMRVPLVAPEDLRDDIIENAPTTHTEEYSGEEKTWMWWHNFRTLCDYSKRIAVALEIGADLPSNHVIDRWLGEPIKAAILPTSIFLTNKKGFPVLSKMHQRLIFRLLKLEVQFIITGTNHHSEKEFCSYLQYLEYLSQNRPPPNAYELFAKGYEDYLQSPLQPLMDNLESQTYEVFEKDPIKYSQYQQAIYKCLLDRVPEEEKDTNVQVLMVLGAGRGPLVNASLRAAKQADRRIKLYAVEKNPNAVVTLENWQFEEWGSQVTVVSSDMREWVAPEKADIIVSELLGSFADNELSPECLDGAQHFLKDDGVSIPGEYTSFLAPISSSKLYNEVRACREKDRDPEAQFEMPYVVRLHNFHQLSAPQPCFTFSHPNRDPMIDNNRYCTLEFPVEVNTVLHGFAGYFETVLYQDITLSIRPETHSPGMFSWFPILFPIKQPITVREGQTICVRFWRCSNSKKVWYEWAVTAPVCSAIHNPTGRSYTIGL
PRMT5-MEP50, sequence (Q9BQA1 whole entry partner): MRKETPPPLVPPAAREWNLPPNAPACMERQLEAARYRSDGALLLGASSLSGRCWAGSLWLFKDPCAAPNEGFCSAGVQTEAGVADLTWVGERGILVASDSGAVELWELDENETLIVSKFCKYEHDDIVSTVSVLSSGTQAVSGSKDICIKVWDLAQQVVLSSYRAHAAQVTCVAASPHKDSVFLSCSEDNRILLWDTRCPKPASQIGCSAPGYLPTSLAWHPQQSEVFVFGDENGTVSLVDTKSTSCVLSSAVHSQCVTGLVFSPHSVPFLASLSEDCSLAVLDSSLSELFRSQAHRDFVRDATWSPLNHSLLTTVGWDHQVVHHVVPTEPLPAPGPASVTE
METTL3/METTL14, sequence (Q86U44 whole entry, species assumed): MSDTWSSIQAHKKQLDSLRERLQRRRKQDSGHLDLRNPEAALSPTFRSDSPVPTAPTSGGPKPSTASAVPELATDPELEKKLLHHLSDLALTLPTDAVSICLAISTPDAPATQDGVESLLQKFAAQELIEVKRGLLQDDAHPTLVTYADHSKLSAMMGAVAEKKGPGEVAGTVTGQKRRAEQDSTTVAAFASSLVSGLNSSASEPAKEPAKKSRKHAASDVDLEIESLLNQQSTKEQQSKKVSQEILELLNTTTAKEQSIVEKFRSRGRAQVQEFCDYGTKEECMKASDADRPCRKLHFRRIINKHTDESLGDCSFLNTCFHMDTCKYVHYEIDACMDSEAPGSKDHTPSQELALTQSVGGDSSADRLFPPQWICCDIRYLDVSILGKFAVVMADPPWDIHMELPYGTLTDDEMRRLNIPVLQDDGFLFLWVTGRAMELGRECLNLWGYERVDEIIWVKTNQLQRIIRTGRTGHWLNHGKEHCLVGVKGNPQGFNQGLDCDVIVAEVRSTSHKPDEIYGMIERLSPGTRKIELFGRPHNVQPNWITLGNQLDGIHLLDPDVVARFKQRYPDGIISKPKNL
METTL3/METTL14, sequence (Q9HCE5 whole entry partner, species assumed): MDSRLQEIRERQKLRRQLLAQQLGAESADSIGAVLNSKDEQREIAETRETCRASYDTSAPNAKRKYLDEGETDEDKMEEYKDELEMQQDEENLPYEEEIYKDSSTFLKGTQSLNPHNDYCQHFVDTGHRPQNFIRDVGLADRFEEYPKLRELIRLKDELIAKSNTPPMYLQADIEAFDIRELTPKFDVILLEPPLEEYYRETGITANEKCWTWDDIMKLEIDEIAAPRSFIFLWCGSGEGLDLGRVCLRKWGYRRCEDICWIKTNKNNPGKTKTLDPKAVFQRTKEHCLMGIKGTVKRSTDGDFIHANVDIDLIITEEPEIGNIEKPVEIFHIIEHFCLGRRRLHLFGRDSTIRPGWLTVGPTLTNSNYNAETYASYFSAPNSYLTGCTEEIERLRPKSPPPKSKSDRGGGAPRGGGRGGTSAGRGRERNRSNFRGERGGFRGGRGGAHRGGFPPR
METTL1/WDR4, sequence (Q9UBP6 whole entry, species assumed): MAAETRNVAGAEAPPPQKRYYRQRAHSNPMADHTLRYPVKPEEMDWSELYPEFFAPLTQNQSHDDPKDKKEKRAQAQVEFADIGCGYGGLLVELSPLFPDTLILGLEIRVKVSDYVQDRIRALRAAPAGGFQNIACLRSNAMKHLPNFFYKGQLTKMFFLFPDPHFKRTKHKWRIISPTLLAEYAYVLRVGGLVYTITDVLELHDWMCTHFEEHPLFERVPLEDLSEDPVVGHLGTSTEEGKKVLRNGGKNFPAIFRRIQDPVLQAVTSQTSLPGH
METTL1/WDR4, sequence (P57081 whole entry partner, species assumed): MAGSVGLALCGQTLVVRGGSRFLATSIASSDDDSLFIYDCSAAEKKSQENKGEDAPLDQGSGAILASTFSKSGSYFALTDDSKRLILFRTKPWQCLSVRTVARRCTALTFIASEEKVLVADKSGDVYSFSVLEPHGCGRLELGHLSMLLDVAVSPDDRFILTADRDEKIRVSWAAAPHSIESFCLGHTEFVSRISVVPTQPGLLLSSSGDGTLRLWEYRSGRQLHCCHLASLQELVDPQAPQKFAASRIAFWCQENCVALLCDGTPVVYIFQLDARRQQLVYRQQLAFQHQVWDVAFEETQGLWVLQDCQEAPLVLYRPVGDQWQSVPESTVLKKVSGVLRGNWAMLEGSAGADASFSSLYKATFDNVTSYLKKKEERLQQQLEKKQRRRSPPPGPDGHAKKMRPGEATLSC

SMILES	IC50 (MOLM-13 cells [1]) [µM]	IC50 (PRMT5-MEP50; [4]) [µM]	IC50 (METTL1/WDR4) [µM]	IC50 (MOLM-13 cells [2]) [µM]	IC50 [3] [µM]	IC50 (METTL3/METTL14; [5]) [µM]	IC50 (METTL1/WDR4; [6]) [µM]	IC50 (PRMT5-MEP50; read-out: PRMT5 IC50; PRMT5 biochemical assay) [µM]	IC50 (METTL1/WDR4; METTL1 biochemical assay, read-out: METTL1 IC50) [µM]	IC50 (METTL3/METTL14; read-out: METTL3 IC50; METTL3 biochemical assay) [µM]
CNc1ccc2ccc(OC[C@H]3O[C@@H](n4cc(C5CCCC5)c5c(N)ncnc54)C[C@@H]3O)cc2n1 [I-30, (2R,3S,5R)-5-(4-amino-5-cyclopentyl-7H-pyrrolo[2,3-d]pyrimidin-7-yl)-2-(((2-(methylamino)quinolin-7-yl)oxy)methyl)tetrahydrofuran-3-ol]	< 1	> 1	> 1	1 to 10	1 to 10	< 0.01	–	–	–	–
CN(C)c1ccc2ccc(OC[C@H]3O[C@@H](n4cc(C5CCCC5)c5c(N)ncnc54)[C@H](O)[C@@H]3O)cc2n1 [I-42]	1 to 10	0.01 to 0.1	–	1 to 10	1 to 10	< 0.01	> 1	–	–	–
CNc1ccc2ccc(OC[C@H]3O[C@@H](n4cc(Cl)c5c(N)ncnc54)[C@@H](F)[C@@H]3O)cc2n1 [I-45, (2R,3R,4S,5R)-5-(4-amino-5-chloro-7H-pyrrolo[2,3-d]pyrimidin-7-yl)-4-fluoro-2-(((2-(methylamino)quinolin-7-yl)oxy)methyl)tetrahydrofuran-3-ol]	1 to 10	0.01 to 0.1	> 1	1 to 10	1 to 10	< 0.01	–	–	–	–
CNc1ccc2ccc(OC[C@H]3O[C@@H](n4cc(Br)c5c(N)ncnc54)[C@@H](F)[C@@H]3O)cc2n1 [I-46]	< 1	0.01 to 0.1	–	1 to 10	1 to 10	< 0.01	> 1	–	–	–
CNc1ccc2ccc(OC[C@H]3O[C@@H](n4cc(Cl)c5c(N)ncnc54)C[C@@H]3O)cc2n1 [I-48]	1 to 10	0.1 to 1	–	> 10	1 to 10	< 0.01	> 1	–	–	–
CNc1ccc2ccc(CC[C@H]3C[C@@H](n4cc(C5CCCC5)c5c(N)ncnc54)[C@H](O)[C@@H]3O)cc2n1 [I-55]	< 1	< 0.01	–	1 to 10	1 to 10	< 0.01	> 1	–	–	–
CNc1ccc2ccc(CC[C@H]3C[C@@H](n4cc(C5CCCCC5)c5c(N)ncnc54)[C@H](O)[C@@H]3O)cc2n1 [I-59]	< 1	< 0.01	–	1 to 10	1 to 10	< 0.01	> 1	–	–	–
Nc1ncnc2c1ccn2[C@@H]1O[C@H](COc2ccc3ccc(N4CCCC4)nc3c2)[C@@H](O)[C@H]1O [I-75]	–	0.01 to 0.1	–	> 10	1 to 10	0.01 to 0.1	> 1	–	–	–
CN(C)c1ccc2ccc(OC[C@H]3O[C@@H](n4ccc5c(N)ncnc54)[C@H](O)[C@@H]3O)cc2n1 [I-78]	1 to 10	0.01 to 0.1	–	> 10	> 10	0.01 to 0.1	> 1	–	–	–
CN(C)c1ccc2ccc(CC[C@H]3C[C@@H](n4ccc5c(N)ncnc54)[C@H](O)[C@@H]3O)cc2n1 [I-98]	1 to 10	0.01 to 0.1	–	> 10	> 10	0.01 to 0.1	> 1	–	–	–
Nc1ncnc2c1ccn2[C@@H]1C[C@H](CCc2ccccn2)[C@@H](O)[C@H]1O [I-118]	> 10	0.1 to 1	–	> 10	> 10	> 1	> 1	–	–	–
CNc1ccc2ccc(OC[C@H]3O[C@@H](n4cc(-c5ccc(C)o5)c5c(N)ncnc54)[C@@H](F)[C@@H]3O)cc2n1 [I-148]	< 1	–	–	< 1	< 1	–	–	0.1 to 1	> 1	< 0.01
